ChEMBL document CHEMBL1268874, “A concise, total synthesis and antibacterial evaluation of 2-hydroxy-1-(1H-indol-3-yl)-4-methylpentan-3-one” (2010)
Converted amounts (≈) assume the structure as drawn.

How the values were obtained:
Format in all cases: functional
Staphylococcus aureus [1] = assay: Antibacterial activity against methicillin-resistant Staphylococcus aureus 1094 after 16 to 20 hrs by broth microdilution method
Escherichia coli [2] = assay: Antibacterial activity against Escherichia coli 700 expressing TolC after 16 to 20 hrs by broth microdilution method
Enterococcus faecalis [3] = assay: Antibacterial activity against Enterococcus faecalis ATCC 29212 after 16 to 20 hrs by broth microdilution method
Pseudomonas aeruginosa [4] = assay: Antibacterial activity against Pseudomonas aeruginosa PAO1 after 16 to 20 hrs by broth microdilution method
Klebsiella pneumoniae [5] = assay: Antibacterial activity against Klebsiella pneumoniae 13882 after 16 to 20 hrs by broth microdilution method
Burkholderia cepacia [6] = assay: Antibacterial activity against Burkholderia cepacia 39277 after 16 to 20 hrs by broth microdilution method
Escherichia coli [7] = assay: Antibacterial activity against TolC deficient Escherichia coli 701 after 16 to 20 hrs by broth microdilution method
Bacillus anthracis = assay: Antibacterial activity against Bacillus anthracis Sterne after 16 to 20 hrs by broth microdilution method
Staphylococcus aureus [8] = assay: Antibacterial activity against Staphylococcus aureus ATCC 25923 after 16 to 20 hrs by broth microdilution method
[9] = tested on: Stenotrophomonas maltophilia; assay: Antibacterial activity against Stenotrophomonas maltophilia ATCC 13637 after 16 to 20 hrs by broth microdilution method
Klebsiella pneumoniae [10] = assay: Antibacterial activity against Klebsiella pneumoniae 700603 after 16 to 20 hrs by broth microdilution method
Bacillus subtilis = assay: Antibacterial activity against Bacillus subtilis BD54 after 16 to 20 hrs by broth microdilution method
Burkholderia cepacia [11] = assay: Antibacterial activity against Burkholderia cepacia 55792 after 16 to 20 hrs by broth microdilution method
Acinetobacter baumannii = assay: Antibacterial activity against Acinetobacter baumannii ATCC 19606 after 16 to 20 hrs by broth microdilution method; conditions: ATCC 19606 = CIP 70.34 = JCM 6841
Enterococcus faecalis [12] = assay: Antibacterial activity against vancomycin-resistant Enterococcus faecalis ATCC 51575 after 16 to 20 hrs by broth microdilution method
Pseudomonas aeruginosa [13] = assay: Antibacterial activity against DmexAB-oprM deletion mutant of Pseudomonas aeruginosa PAO1 after 16 to 20 hrs by broth microdilution method
[14] = Bacillus subtilis, BD54, read-out: MIC

SMILES: CC(=O)OC(Cc1c[nH]c2ccccc12)C(=O)C(C)C (centres undefined)
- MIC (Staphylococcus aureus [1]): > 80 µg/mL
- MIC (Escherichia coli [2]): > 80 µg/mL
- MIC (Enterococcus faecalis [3]): > 80 µg/mL
- MIC (Pseudomonas aeruginosa [4]): > 80 µg/mL
- MIC (Klebsiella pneumoniae [5]): > 80 µg/mL
- MIC (Burkholderia cepacia [6]): > 80 µg/mL
- MIC (Escherichia coli [7]): > 80 µg/mL
- MIC (Bacillus anthracis): > 80 µg/mL
- MIC (Staphylococcus aureus [8]): > 90 µg/mL
- MIC [9]: > 80 µg/mL
- MIC (Klebsiella pneumoniae [10]): > 80 µg/mL
- MIC (Bacillus subtilis; [14]): > 80 µg/mL
- MIC (Burkholderia cepacia [11]): > 80 µg/mL
- MIC (Acinetobacter baumannii): > 80 µg/mL
- MIC (Enterococcus faecalis [12]): > 80 µg/mL

SMILES: CC(C)C(=O)C(O)Cc1c[nH]c2ccccc12 (single isomer, unassigned; (+))
- MIC (Staphylococcus aureus [1]): > 80 µg/mL
- MIC (Escherichia coli [2]): > 80 µg/mL
- MIC (Enterococcus faecalis [3]): > 80 µg/mL
- MIC (Pseudomonas aeruginosa [4]): > 80 µg/mL
- MIC (Klebsiella pneumoniae [5]): > 80 µg/mL
- MIC (Burkholderia cepacia [6]): > 80 µg/mL
- MIC (Escherichia coli [7]): > 80 µg/mL
- MIC (Bacillus anthracis): > 80 µg/mL
- MIC (Staphylococcus aureus [8]): > 80 µg/mL
- MIC [9]: > 80 µg/mL
- MIC (Klebsiella pneumoniae [10]): > 80 µg/mL
- MIC (Bacillus subtilis; [14]): > 80 µg/mL
- MIC (Burkholderia cepacia [11]): > 80 µg/mL
- MIC (Acinetobacter baumannii): > 80 µg/mL
- MIC (Enterococcus faecalis [12]): > 80 µg/mL

SMILES: CC(C)C(O)C(=O)Cc1c[nH]c2ccccc12 (single isomer, unassigned; (+))
- MIC (Enterococcus faecalis [3]): > 80 µg/mL
- MIC (Burkholderia cepacia [6]): > 80 µg/mL
- MIC (Bacillus subtilis): >40 µg/mL
- MIC (Burkholderia cepacia [11]): > 80 µg/mL
- MIC (Enterococcus faecalis [12]): > 80 µg/mL

SMILES: CC(C)C(O)C(=O)Cc1c[nH]c2ccccc12 (single isomer, unassigned; (-))
- MIC (Staphylococcus aureus [1]): > 80 µg/mL
- MIC (Escherichia coli [2]): > 80 µg/mL
- MIC (Pseudomonas aeruginosa [4]): > 80 µg/mL
- MIC (Klebsiella pneumoniae [5]): > 80 µg/mL
- MIC (Escherichia coli [7]): > 80 µg/mL
- MIC (Bacillus anthracis): > 80 µg/mL
- MIC (Staphylococcus aureus [8]): > 80 µg/mL
- MIC [9]: > 80 µg/mL
- MIC (Klebsiella pneumoniae [10]): > 80 µg/mL
- MIC (Bacillus subtilis; [14]): > 80 µg/mL
- MIC (Acinetobacter baumannii): > 80 µg/mL

SMILES: CC(=O)OC(C(=O)Cc1c[nH]c2ccccc12)C(C)C (centres undefined)
- MIC (Staphylococcus aureus [1]): > 80 µg/mL
- MIC (Escherichia coli [2]): > 80 µg/mL
- MIC (Enterococcus faecalis [3]): > 80 µg/mL
- MIC (Pseudomonas aeruginosa [4]): > 80 µg/mL
- MIC (Klebsiella pneumoniae [5]): > 80 µg/mL
- MIC (Burkholderia cepacia [6]): > 80 µg/mL
- MIC (Escherichia coli [7]): > 80 µg/mL
- MIC (Bacillus anthracis): > 80 µg/mL
- MIC (Staphylococcus aureus [8]): > 80 µg/mL
- MIC [9]: > 80 µg/mL
- MIC (Klebsiella pneumoniae [10]): > 80 µg/mL
- MIC (Bacillus subtilis; [14]): > 80 µg/mL
- MIC (Burkholderia cepacia [11]): > 80 µg/mL
- MIC (Acinetobacter baumannii): > 80 µg/mL
- MIC (Enterococcus faecalis [12]): > 80 µg/mL

SMILES: O=C(O)c1cn(C2CC2)c2cc(N3CCNCC3)c(F)cc2c1=O [CIPROFLOXACIN]
- MIC (Staphylococcus aureus [1]): 20 µg/mL (≈ 60.4 µM)
- MIC (Enterococcus faecalis [3]): 1.9 µg/mL (≈ 5.73 µM)
- MIC (Pseudomonas aeruginosa [13]): 20 µg/mL (≈ 60.4 µM)
- MIC (Pseudomonas aeruginosa [4]): 0.313 µg/mL (≈ 0.945 µM)
- MIC (Klebsiella pneumoniae [5]): 0.078 µg/mL (≈ 0.235 µM)
- MIC (Burkholderia cepacia [6]): 0.078 µg/mL (≈ 0.235 µM)
- MIC (Staphylococcus aureus [8]): 469 µg/mL (≈ 1420 µM)
- MIC [9]: 0.313 µg/mL (≈ 0.945 µM)
- MIC (Klebsiella pneumoniae [10]): 0.313 µg/mL (≈ 0.945 µM)
- MIC (Bacillus subtilis; [14]): 0.078 µg/mL (≈ 0.235 µM)
- MIC (Burkholderia cepacia [11]): 0.039 µg/mL (≈ 0.118 µM)
- MIC (Acinetobacter baumannii): 1.25 µg/mL (≈ 3.77 µM)
- MIC (Enterococcus faecalis [12]): 0.625 µg/mL (≈ 1.89 µM)
